Test results from ChEMBL document CHEMBL6182857, “Targeting biofilm formation in Candida albicans with halogenated pyrrolopyrimidine derivatives” (Eur J Med Chem, 2025).
Calls of active or inactive are those of the source. The rule behind the calls is not given here.

How the values were obtained:
[1] = system: Candida albicans; assay: Additive antibiofilm activity against fluconazole-resistant Candida albicans DAY185 assessed as inhibition of biofilm formation at 5 ug/ml measured after 24 hrs in presence of BTZ by crystal violet staining based analysis relative to control; assay type: functional, organism-based; conditions: dose 5.0 µg/ml
[2] = system: Candida albicans; assay: Inhibition of yeast to hypha transition in fluconazole-resistant Candida albicans DAY185 assessed as decrease in germ tube formation at 5 to 20 ug/ml measured after 24 hrs by SEM analysis; assay type: functional, organism-based; conditions: dose 5-20 µg/ml
[3] = system: Brassica rapa; assay: Toxicity in Brassica rapa assessed as seed germination rate at 10 to 100 ug/ml treated for 4 days relative to control; assay type: organism-based; conditions: in vivo, 96 h, at 10 to 100 µg/mL, dose 10-100 µg/ml, time 4 day
[4] = system: Candida albicans; assay: Antibiofilm activity against fluconazole-resistant Candida albicans DAY185 assessed as inhibition of biofilm formation at 5 ug/ml measured after 24 hrs by 2D/3D imaging analysis; assay type: functional, organism-based; conditions: dose 5.0 µg/ml
[5] = system: Candida albicans; assay: Antibiofilm activity against fluconazole-resistant Candida albicans DAY185 assessed as inhibition of biofilm formation at 50 ug/ml measured after 24 hrs by crystal violet staining based analysis relative to control; assay type: functional
[6] = system: [Candida] auris; assay: Antibiofilm activity against Candida auris KCTC 17809 assessed as inhibition of biofilm formation by crystal violet staining based analysis; assay type: functional, organism-based; conditions: Candidozyma auris
[7] = system: Candida albicans; assay: Antibiofilm activity against fluconazole-resistant Candida albicans DAY185 assessed as inhibition of biofilm formation at 10 to 20 ug/ml measured after 24 hrs by 2D/3D imaging analysis relative to control; assay type: functional; conditions: dose 10-20 µg/ml, at 10 to 20 µg/mL
[8] = system: [Candida] auris; assay: Antibiofilm activity against Candida auris KCTC 17810 assessed as inhibition of biofilm formation by crystal violet staining based analysis; assay type: functional, organism-based; conditions: Candidozyma auris
[9] = system: Candida albicans; assay: Upregulation of GST3 mRNA level in fluconazole-resistant Candida albicans DAY185 assessed as fold increase at 50 ug/ml incubated for 6 hrs by qRT-PCR analysis relative to control; assay type: functional; conditions: dose 50.0 µg/ml
[10] = system: Candida albicans; assay: Inhibition of yeast to hypha transition in fluconazole-resistant Candida albicans DAY185 assessed as decrease in cell aggregation at 5 to 20 ug/ml measured after 24 hrs by SEM analysis; assay type: functional, organism-based; conditions: dose 5-20 µg/ml
[11] = system: Candida albicans; assay: Antibiofilm activity against fluconazole-resistant Candida albicans DAY185 assessed as reduction in substratum coverage on bio-compatible PLGA surface coated with compound at 5 ug/ml incubated for 24 hrs by COMSTAT analysis; assay type: functional, organism-based; conditions: dose 5.0 µg/ml
[12] = system: Candida albicans; assay: Upregulation of CDR11 mRNA level in fluconazole-resistant Candida albicans DAY185 assessed as fold increase at 50 ug/ml incubated for 6 hrs by qRT-PCR analysis relative to control; assay type: functional; conditions: dose 50.0 µg/ml
[13] = system: Candida albicans; assay: Upregulation of UCF1 mRNA level in fluconazole-resistant Candida albicans DAY185 assessed as fold increase at 50 ug/ml incubated for 6 hrs by qRT-PCR analysis relative to control; assay type: functional; conditions: dose 50.0 µg/ml
[14] = system: Candida albicans; assay: Downregulation of HWP1 mRNA level in fluconazole-resistant Candida albicans DAY185 assessed as fold decrease at 50 ug/ml incubated for 6 hrs by qRT-PCR analysis relative to control; assay type: functional; conditions: dose 50.0 µg/ml
[15] = Toxicity in Caenorhabditis elegans assessed as nematode survival at higher concentrations treated for 10 days; conditions: 240 h, time 10 day
[16] = system: Candida albicans; assay: Inhibition of yeast to hypha transition in fluconazole-resistant Candida albicans DAY185 assessed as decrease in filamentous growth at 5 to 20 ug/ml measured after 24 hrs by SEM analysis; assay type: functional, organism-based; conditions: dose 5-20 µg/ml
[17] = system: Candida albicans; assay: Upregulation of ZAP1 mRNA level in fluconazole-resistant Candida albicans DAY185 assessed as fold increase at 50 ug/ml incubated for 6 hrs by qRT-PCR analysis relative to control; assay type: functional; conditions: dose 50.0 µg/ml
[18] = system: Candida albicans; assay: Antibiofilm activity against Candida albicans KCCM 12552 assessed as inhibition of biofilm formation by crystal violet staining based analysis; assay type: functional, organism-based
[19] = system: Candida albicans; assay: Downregulation of ALS3 mRNA level in fluconazole-resistant Candida albicans DAY185 assessed as fold decrease at 50 ug/ml incubated for 6 hrs by qRT-PCR analysis relative to control; assay type: functional; conditions: dose 50.0 µg/ml
[20] = system: Candida albicans; assay: Antibiofilm activity against fluconazole-resistant Candida albicans DAY185 assessed as reduction in mean biofilm thickness on bio-compatible PLGA surface coated with compound incubated for 24 hrs by COMSTAT analysis; assay type: functional, organism-based
[21] = system: Candida albicans; assay: Antibiofilm activity against fluconazole-resistant Candida albicans DAY185 assessed as reduction in biofilm mass on bio-compatible PLGA surface coated with compound incubated for 24 hrs by COMSTAT analysis; assay type: functional, organism-based
[22] = system: Candida albicans; assay: Inhibition of yeast to hypha transition in fluconazole-resistant Candida albicans DAY185 assessed as decrease in hyphal adhesion at 5 to 20 ug/ml measured after 24 hrs by SEM analysis; assay type: functional, organism-based; conditions: dose 5-20 µg/ml
[23] = system: Candida albicans; assay: Upregulation of YWP1 mRNA level in fluconazole-resistant Candida albicans DAY185 assessed as fold increase at 50 ug/ml incubated for 6 hrs by qRT-PCR analysis relative to control; assay type: functional; conditions: dose 50.0 µg/ml
[24] = system: Candida albicans; assay: Inhibition of yeast to hypha transition in fluconazole-resistant Candida albicans DAY185 assessed as decrease in hyphal growth at 5 to 20 ug/ml measured after 24 hrs by SEM analysis; assay type: functional, organism-based; conditions: dose 5-20 µg/ml
[25] = system: Candida albicans; assay: Upregulation of IFD6 mRNA level in fluconazole-resistant Candida albicans DAY185 assessed as fold increase at 50 ug/ml incubated for 6 hrs by qRT-PCR analysis relative to control; assay type: functional; conditions: dose 50.0 µg/ml
[26] = system: Candida albicans; assay: Effect on UME6 mRNA level in fluconazole-resistant Candida albicans DAY185 at 50 ug/ml incubated for 6 hrs by qRT-PCR analysis; assay type: functional; conditions: dose 50.0 µg/ml
[27] = system: Candida albicans; assay: Antibiofilm activity against fluconazole-resistant Candida albicans DAY185 assessed as inhibition of biofilm formation on bio-compatible PLGA surface coated with compound at 5 to 10 ug/ml incubated for 24 hrs by CLSM analysis; assay type: functional, organism-based; conditions: dose 5-10 µg/ml
[28] = system: Candida albicans; assay: Downregulation of ECE1 mRNA level in fluconazole-resistant Candida albicans DAY185 assessed as fold decrease at 50 ug/ml incubated for 6 hrs by qRT-PCR analysis relative to control; assay type: functional; conditions: dose 50.0 µg/ml
[29] = system: Candida albicans; assay: Antibiofilm activity against Candida albicans ATCC 10231 assessed as inhibition of biofilm formation by crystal violet staining based analysis; assay type: functional, organism-based
[30] = system: Candida albicans; assay: Antibiofilm activity against fluconazole-resistant Candida albicans DAY185 assessed as inhibition of biofilm formation at 5 ug/ml measured after 24 hrs by crystal violet staining based analysis; assay type: functional, organism-based; conditions: dose 5.0 µg/ml
[31] = system: Candida albicans; assay: Antibiofilm activity against fluconazole-resistant Candida albicans DAY185 assessed as reduction in biofilm thickness on bio-compatible PLGA surface coated with compound at 5 to 10 ug/ml incubated for 24 hrs by CLSM analysis; assay type: functional, organism-based; conditions: dose 5-10 µg/ml
[32] = system: Candida albicans; assay: Antibiofilm activity against fluconazole-resistant Candida albicans DAY185 assessed as reduction in overall biofilm mass on bio-compatible PLGA surface coated with compound at 5 to 10 ug/ml incubated for 24 hrs by CLSM analysis; assay type: functional, organism-based; conditions: dose 5-10 µg/ml
[33] = system: Candida albicans; assay: Additive antibiofilm activity against fluconazole-resistant Candida albicans DAY185 assessed as inhibition of biofilm formation at 5 ug/ml measured after 24 hrs in presence of AMB by crystal violet staining based analysis relative to control; assay type: functional, organism-based; conditions: dose 5.0 µg/ml
[34] = system: Candida albicans; assay: Antibiofilm activity against fluconazole-resistant Candida albicans DAY185 assessed as inhibition of biofilm formation at 7 ug/ml measured after 24 hrs by crystal violet staining based analysis relative to control; assay type: functional
[35] = system: Candida albicans; assay: Inhibition of yeast to hypha transition in fluconazole-resistant Candida albicans DAY185 assessed as decrease in hyphal development at >=10 ug/ml measured after 24 hrs by SEM analysis relative to control; assay type: functional; conditions: dose >= 10 µg/ml
[36] = system: Candida albicans; assay: Antibiofilm activity against fluconazole-resistant Candida albicans DAY185 assessed as inhibition of biofilm formation at 1 ug/ml measured after 24 hrs by crystal violet staining based analysis relative to control; assay type: functional
[37] = system: Candida albicans; assay: Antibiofilm activity against fluconazole-resistant Candida albicans DAY185 assessed as inhibition of biofilm formation at 20 ug/ml measured after 24 hrs by crystal violet staining based analysis relative to control; assay type: functional

For `Clc1nc(Cl)c2c(I)c[nH]c2n1`, which inhibition [1] is on record?
Its inhibition is “Active”.

And the inhibition [2]?
Its inhibition is “Active”.

What about the Activity [3] of the same molecule?
Its Activity is > 90%.

What about the inhibition [4] of the same molecule?
Its inhibition is “Active”.

And the inhibition at 50 µg/mL [5]?
Its inhibition at 50 µg/mL is > 85%.

And the inhibition [6]?
Its inhibition is “Dose-dependent-effect”.

What about the “inhibition (INH)” value [7] of the same molecule?
Its value is ~100%.

And the inhibition [8]?
The inhibition was “Dose-dependent-effect”.

And the fold change (FC) [9]?
The fold change (FC) was 58.

And the inhibition [10]?
The inhibition was “Active”.

What about the Activity [11] of the same molecule?
The Activity was “Active”.

What about the fold change (FC) [12] of the same molecule?
The fold change (FC) was 138.

And the fold change (FC) [13]?
Its fold change (FC) is 37.

What about the fold change (FC) [14] of the same molecule?
The fold change (FC) was 57.

What about the Activity [15] of the same molecule?
Its Activity is “Toxic”.

And the inhibition [16]?
Its inhibition is “Active”.

What about the fold change (FC) [17] of the same molecule?
Its fold change (FC) is 10.

What about the inhibition [18] of the same molecule?
Its inhibition is “Dose-dependent-effect”.

What about the fold change (FC) [19] of the same molecule?
Its fold change (FC) is 8.

What about the Activity [20] of the same molecule?
The Activity was “Dose-dependent-effect; Nearly Undetectable Levels Were Observed At 5 Ug/Ml”.

And the Activity [21]?
The Activity was “Dose-dependent-effect; Nearly Undetectable Levels Were Observed At 5 Ug/Ml”.

What about the inhibition [22] of the same molecule?
Its inhibition is “Active”.

What about the fold change (FC) [23] of the same molecule?
Its fold change (FC) is 55.

What about the inhibition [24] of the same molecule?
Its inhibition is “Active”.

And the fold change (FC) [25]?
Its fold change (FC) is 82.

What about the Activity [26] of the same molecule?
The Activity was “No effect”.

And the inhibition [27]?
Its inhibition is “Active; Significant Effect Even At Lower Concentration”.

What about the fold change (FC) [28] of the same molecule?
Its fold change (FC) is 143.

And the inhibition [29]?
The inhibition was “Dose-dependent-effect”.

What about the inhibition [30] of the same molecule?
Its inhibition is “Active”.

What about the Activity [31] of the same molecule?
Its Activity is “Active; More Pronounced Effects Were Observed At Higher Concentration”.

What about the Activity [32] of the same molecule?
Its Activity is “Active; More Pronounced Effects Were Observed At Higher Concentration”.

And the inhibition [33]?
The inhibition was “Active”.

What about the inhibition at 7 µg/mL [34] of the same molecule?
The inhibition at 7 µg/mL was 100%.

And the “inhibition (INH)” value [35]?
The value was 100%.

For `CC(=O)N1CCN(c2ccc(OCC3COC(Cn4ccnc4)(c4ccc(Cl)cc4Cl)O3)cc2)CC1` (centres undefined) [KETOCONAZOLE], which inhibition at 1 µg/mL [36] is on record?
The inhibition at 1 µg/mL was < 12%.

For `Clc1nc(Cl)c2c(Br)c[nH]c2n1`, which inhibition at 50 µg/mL [5] is on record?
Its inhibition at 50 µg/mL is > 95%.

What about the inhibition at 20 µg/mL [37] of the same molecule?
The inhibition at 20 µg/mL was > 85%.

With `Clc1c[nH]c2ncnc(Cl)c12` as the molecule, how does the inhibition at 50 µg/mL [5] read?
Its inhibition at 50 µg/mL is > 85%.
